Test results reported in PMC9395446, “First-in-human phase 1/1b study to evaluate sitravatinib in patients with advanced solid tumors” (Investigational New Drugs, 2022).

Test: Safety in phase 1/1b study (DLTs, TRAEs, TEAEs; CTCAE v4.03)
Format: in vivo, human
Details: 150 mg phase 1b
From the text: Safety assessments included evaluation of DLTs, AEs, physical examinations, vital sign measurements, electrocardiogram recordings and laboratory tests.
A DLT was defined as a grade ≥ 4 hematologic abnormality lasting ≥ 4 days; grade 3 thrombocytopenia with clinically significant bleeding; febrile neutropenia; clinically significant grade ≥ 3 non-hematologic AEs not related to underlying malignancy; intolerable grade 2 AEs; or toxicity resulting in an inability to deliver 80% of the dose during the first treatment cycle.
The safety population included all patients who received ≥ 1 dose of sitravatinib. […] The PK evaluable population included all patients with sufficient concentration-time data for PK parameter evaluation. The modified intent-to-treat (mITT) population included all phase 1b patients who received ≥ 1 dose of study drug.

SMILES: COCCNCc1ccc(-c2cc3nccc(Oc4ccc(NC(=O)C5(C(=O)Nc6ccc(F)cc6)CC5)cc4F)c3s2)nc1 [sitravatinib, Sitravatinib]
- ALT increased TRAE, any grade: 18 (18.2) n (%)
- ALT increased TRAE, grade ≥3: 2 (2.0) n (%)
- AST increased TEAE, any grade: 26 (26.3) n (%)
- AST increased TEAE, grade ≥3: 3 (3.0) n (%)
- AST increased TRAE, any grade: 20 (20.2) n (%)
- AST increased TRAE, grade ≥3: 2 (2.0) n (%)
- Abdominal pain TEAE, any grade: 26 (26.3) n (%)
- Abdominal pain TEAE, grade ≥3: 2 (2.0) n (%)
- Abdominal pain TRAE, any grade: 14 (14.1) n (%)
- Abdominal pain TRAE, grade ≥3: 0 n (%)
- Anemia TEAE, any grade: 23 (23.2) n (%)
- Anemia TEAE, grade ≥3: 8 (8.1) n (%)
- Any TEAE: 99 (100.0) n (%)
- Any TRAE: 92 (92.9) n (%)
- Asthenia TEAE, any grade: 9 (9.1) n (%)
- Asthenia TEAE, grade ≥3: 0 n (%)
- Back pain TEAE, any grade: 18 (18.2) n (%)
- Back pain TEAE, grade ≥3: 3 (3.0) n (%)
- Blood and lymphatic system disorders TEAE, any grade: 27 (27.3) n (%)
- Blood and lymphatic system disorders TEAE, grade ≥3: 11 (11.1) n (%)
- Blood creatinine increased TEAE, any grade: 15 (15.2) n (%)
- Blood creatinine increased TEAE, grade ≥3: 0 n (%)
- Cardiac disorders TEAE, any grade: 15 (15.2) n (%)
- Cardiac disorders TEAE, grade ≥3: 6 (6.1) n (%)
- Constipation TEAE, any grade: 40 (40.4) n (%)
- Constipation TEAE, grade ≥3: 0 n (%)
- Constipation TRAE, any grade: 9 (9.1) n (%)
- Constipation TRAE, grade ≥3: 0 n (%)
- Cough TEAE, any grade: 15 (15.2) n (%)
- Cough TEAE, grade ≥3: 0 n (%)
- Decreased appetite TEAE, any grade: 38 (38.4) n (%)
- Decreased appetite TEAE, grade ≥3: 1 (1.0) n (%)
- Decreased appetite TRAE, any grade: 27 (27.3) n (%)
- Decreased appetite TRAE, grade ≥3: 1 (1.0) n (%)
- Dehydration TEAE, any grade: 23 (23.2) n (%)
- Dehydration TEAE, grade ≥3: 4 (4.0) n (%)
- Diarrhea TEAE, any grade: 67 (67.7) n (%)
- Diarrhea TEAE, grade ≥3: 18 (18.2) n (%)
- Diarrhea TRAE, any grade: 59 (59.6) n (%)
- Diarrhea TRAE, grade ≥3: 14 (14.1) n (%)
- Dizziness TEAE, any grade: 19 (19.2) n (%)
- Dizziness TEAE, grade ≥3: 0 n (%)
- Dizziness TRAE, any grade: 12 (12.1) n (%)
- Dizziness TRAE, grade ≥3: 0 n (%)
- Dry mouth TEAE, any grade: 15 (15.2) n (%)
- Dry mouth TEAE, grade ≥3: 0 n (%)
- Dry mouth TRAE, any grade: 10 (10.1) n (%)
- Dry mouth TRAE, grade ≥3: 0 n (%)
- Dysphonia TEAE, any grade: 26 (26.3) n (%)
- Dysphonia TEAE, grade ≥3: 0 n (%)
- Dysphonia TRAE, any grade: 13 (13.1) n (%)
- Dysphonia TRAE, grade ≥3: 0 n (%)
- Dyspnea TEAE, any grade: 19 (19.2) n (%)
- Dyspnea TEAE, grade ≥3: 2 (2.0) n (%)
- Edema peripheral TEAE, any grade: 16 (16.2) n (%)
- Edema peripheral TEAE, grade ≥3: 0 n (%)
- Endocrine disorders TEAE, any grade: 27 (27.3) n (%)
- Endocrine disorders TEAE, grade ≥3: 2 (2.0) n (%)
- Fatigue TEAE, any grade: 55 (55.6) n (%)
- Fatigue TEAE, grade ≥3: 9 (9.1) n (%)
- Fatigue TRAE, any grade: 49 (49.5) n (%)
- Fatigue TRAE, grade ≥3: 7 (7.1) n (%)
- Gastrointestinal disorders TEAE, any grade: 89 (89.9) n (%)
- Gastrointestinal disorders TEAE, grade ≥3: 33 (33.3) n (%)
- General disorders and administration site conditions TEAE, any grade: 72 (72.7) n (%)
- General disorders and administration site conditions TEAE, grade ≥3: 12 (12.1) n (%)
- Headache TEAE, any grade: 18 (18.2) n (%)
- Headache TEAE, grade ≥3: 1 (1.0) n (%)
- Hypertension TEAE, any grade: 52 (52.5) n (%)
- Hypertension TEAE, grade ≥3: 29 (29.3) n (%)
- Hypertension TRAE, any grade: 46 (46.5) n (%)
- Hypertension TRAE, grade ≥3: 24 (24.2) n (%)
- Hypokalemia TEAE, any grade: 13 (13.1) n (%)
- Hypokalemia TEAE, grade ≥3: 3 (3.0) n (%)
- Hypomagnesemia TEAE, any grade: 17 (17.2) n (%)
- Hypomagnesemia TEAE, grade ≥3: 0 n (%)
- Hyponatremia TEAE, any grade: 16 (16.2) n (%)
- Hyponatremia TEAE, grade ≥3: 5 (5.1) n (%)
- Hypophosphatemia TEAE, any grade: 15 (15.2) n (%)
